Details of series [1]: method as in PMID 35758258, PMID 23222541. To be noted: phase I, healthy participants; cited from earlier work.
Series [2] concerns PAR4. On the set-up: method as in PMID 28053157. Conditions: cited from earlier work.
The test system of series [3] is PAR4. On the set-up: method as in PMID 27777004. Conditions: read-out: IC50 against γ-thrombin; cited from earlier work.
Another series addresses T1, mouse PAR4 (Mus musculus, UniProt O88634).
T1 construct: washed mouse platelets were prepared by collecting cardiac puncture blood; endogenous in cells; host or cells: washed mouse platelets (cardiac puncture blood)
T1 sequence (O88634 17-396): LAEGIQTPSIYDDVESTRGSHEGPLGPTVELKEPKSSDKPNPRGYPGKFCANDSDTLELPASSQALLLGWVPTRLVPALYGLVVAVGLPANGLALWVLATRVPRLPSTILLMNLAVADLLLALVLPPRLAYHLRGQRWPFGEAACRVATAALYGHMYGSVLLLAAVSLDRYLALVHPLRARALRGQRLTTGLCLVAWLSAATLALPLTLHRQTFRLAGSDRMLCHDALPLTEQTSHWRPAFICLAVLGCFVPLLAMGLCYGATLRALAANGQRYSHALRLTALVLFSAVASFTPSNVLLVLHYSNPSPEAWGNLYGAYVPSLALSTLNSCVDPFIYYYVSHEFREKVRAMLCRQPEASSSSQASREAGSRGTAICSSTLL
In words: Mouse platelet activity assay, flow cytometry, γ-thrombin activation. It counts as cell-based. On the procedure:
For mouse PAR4 activity, washed mouse platelets were prepared by collecting cardiac puncture blood with 200 μL of 20 U/mL heparin. Following centrifugation at 1000 rpm for 15 min, plasma and buffy coat were collected into a separate tube and spiked with apyrase and PGE1. After centrifuging at 1000 rpm for 8 min, the platelet-rich plasma was transferred to another tube and centrifuged at 2200 rpm for 10 min to pellet the platelets. Platelets were resuspended in TBB + apyrase + PGE1. Platelets were counted and diluted in TBB to a final concentration of 2 × 10^7 platelets/mL. 50 μL of platelets were aliquoted to each tube preincubated with 50 μL of TBB with antibodies for mouse GPIIbIIIa and P-selectin (Emfret, Eibelstadt Germany) and either test compound antagonist or DMSO control. Platelets were activated with 316 nM γ-thrombin for 30 min. Samples were then fixed with 100 μL of 2% paraformaldehyde for 20 min and diluted with 300 μL of PBS. Flow cytometry counts are measured as for human platelets on a three-laser BD LSRFortessa (Becton Dickinson) and analyzed with FloJo software.

A short description of series [4]: Plasma protein binding, human plasma. It counts as in vitro ADME. To be noted: pH 7.4, read-out: human PPB fu.
Series [5] is described as follows: Microsomal stability, human liver microsomes. It counts as in vitro ADME. Here is the method: The metabolic stability of each compound was investigated in mouse and human hepatic microsomes using substrate depletion methodology (% parent compound remaining). Prior to use, microsomes were removed from the freezer and allowed to thaw in a 37 °C water bath before being placed on wet ice.
In separate 96-well plates for each time point, a mixture of 0.1 M potassium phosphate-buffered (pH 7.4), 3 mM MgCl2, and 2.5 mg/mL microsomes were prewarmed at 37 °C for 5 min. Following the preincubation, a 1 μM test compound and 1 mM NADPH (for 3, 7, 15, 25, or 45 min time points) or buffer (for 0 min time point) were added to initiate the reaction. Under standard conditions, reactions were initiated with the addition of NADPH. To delineate the contribution of esterases, some experiments were initiated by the addition of substrate in the presence or absence of NADPH. Plates were incubated at 37 °C under ambient oxygenation. At the respective times, each plate’s reaction was precipitated by the addition of 2 volumes of ice-cold acetonitrile containing an internal standard (carbamazepine, 50 nM). The plates were centrifuged at 4000 rcf (4 °C) for 5 min. The resulting supernatants were transferred and diluted 1:1 (supernatant:water) into new 96-well plates in preparation for LC/MS/MS analysis. Each compound was assayed in triplicate within the same 96-well plate. The in vitro half-life (t1/2, min, eq 1), intrinsic clearance (CLint, mL/min/kg, eq 2), and subsequent predicted hepatic clearance (CLhep, mL/min/kg, eq 3) were determined employing the following equations [drawing 1] 1 [drawing 2] 2 [drawing 3] 3 The estimated percent contribution to metabolism was calculated from the percent substrate lost plots generated from metabolic incubations initiated with the addition of a test compound. Calculations compared the area under the curve (AUC) from conditions in the presence and absence of NADPH and buffer-only (control) conditions (eqs 4 and 5). AUC was calculated by using the trapezoidal method [drawing 4] 4 [drawing 5] 5
The analysis of in vitro samples from microsomal stability or plasma protein binding experiments was determined by employing LCMS/MS with an electrospray ionization-enabled 5500 Sciex instrument (Sciex, Foster City, CA) that was coupled to Agilent HPLC pumps and an autosampler (Agilent Technologies, Santa Clara, CA). Analytes were separated by gradient elution using a Kinetex C18 column (2.1 mm × 50 mm, 5 μm; Phenomenex, Torrance, CA) warmed to 35 °C. Mobile phase A was 0.5% formic acid in water, and mobile phase B was 0.5% formic acid in acetonitrile. […] The total run time was 2.8 min, and the HPLC flow rate was 0.5 mL/min. Mass spectral analyses were performed using multiple reaction monitoring, with transitions and voltages specific for each analyte using a Turbo Ion Spray source (source temperature of 500 °C) in positive ionization mode (5.0 kV spray voltage). Multiple reaction monitoring transitions were the following: 6110B8 (m/z 345.02 → 149.03, DP = 31; EP = 10; CE = 37 and CXP = 14), 6G3R (m/z 421.06 → 225.12, DP = 91; EP = 10; CE = 39 and CXP = 12), 5D22 (m/z 309.068 → 211.16, DP = 131; EP = 10; CE = 29 and CXP = 12), and carbamazepine (m/z 237 → 194, DP = 96; EP = 10; CE = 25 and CXP = 8). Data were analyzed using OS Sciex Analyst 1.5.1 (SCIEX, Framingham, MA), Graphpad Prism 10.1.0 (GraphPad Software, Boston, Massachusetts), and Microsoft Excel version 2310 (Microsoft, Redmond, WA).
Background: Microsomes from liver hold many membrane-bound enzymes, among them those of drug oxidation.

Another series has as its target T2, PAR1 (Homo sapiens, UniProt P25116).
T2 construct: endogenous in cells; host or cells: platelets
T2 sequence (P25116 22-425): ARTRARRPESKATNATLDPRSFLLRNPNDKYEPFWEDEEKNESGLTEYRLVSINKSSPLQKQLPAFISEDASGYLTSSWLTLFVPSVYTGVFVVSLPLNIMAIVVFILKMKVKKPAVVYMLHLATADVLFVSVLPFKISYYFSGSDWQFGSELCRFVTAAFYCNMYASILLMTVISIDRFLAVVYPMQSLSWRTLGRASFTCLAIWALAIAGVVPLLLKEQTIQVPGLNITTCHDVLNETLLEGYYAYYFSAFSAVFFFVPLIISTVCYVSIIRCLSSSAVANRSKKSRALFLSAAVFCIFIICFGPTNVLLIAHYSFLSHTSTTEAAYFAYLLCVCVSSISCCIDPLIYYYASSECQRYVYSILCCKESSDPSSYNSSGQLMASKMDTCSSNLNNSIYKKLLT
On the set-up: method as in PMID 22443427, PMID 22077816. Conditions: cited from earlier work.

Like-named read-outs stand apart in the source and are kept apart here.

Take `COc1cc(OCc2nc(N3CCOCC3)sc2C)c2cc(-c3cn4nc(OC)sc4n3)oc2c1` [BMS-986120]: the safety and tolerability result in series [1] was “safe and well tolerated”. The antithrombotic activity result in the series on PAR4 [2] (cynomolgus monkey arterial thrombosis model) is “potent and highly efficacious antithrombotic activity”. In the series with PAR4 [2] (nonhuman primate model), the bleeding liability entry was “low bleeding liability”.
`COc1cc(OCc2csc(-c3ccc(C(=O)N(C)C)cc3)n2)c2cc(-c3cn4nc(OC)sc4n3)oc2c1` [BMS-986141]: the safety and tolerability entry in series [1] was “safe and well tolerated”.
On to `COc1nn2cc(-c3c(CO)n(Cc4ccccc4Cl)c4ccc(OC(F)(F)F)cc34)nc2s1` [Compound 6], for which the half-maximal inhibitory concentration (IC50) (usually the concentration that gives 50% inhibition) with PAR4 [3] is 4.35 µM.
With `O=C(Nc1n[nH]c(-c2cccc(OC(F)F)c2)n1)c1nn(-c2ccccc2)c2c1CCCC2` [Compound 33], the IC50 at mouse PAR4 (Table 4 summary, read-out: mouse PAR4 IC50) amounted to 296 nM; on mouse PAR4 (mouse platelets, 316 nM γ-thrombin, GPIIbIIIa (JonA), read-out: Mouse Platelets JonA IC50), 296 nM; at mouse PAR4 (mouse platelets, 316 nM γ-thrombin, P-selectin, read-out: Mouse Platelets P-Sel IC50), 345 nM. Further, the fraction unbound at 4 h in series [4] was determined as 0.006. In addition, the intrinsic metabolic clearance (CLint scaled) (commonly a measure of how fast metabolising enzymes remove a compound, apart from limits set by blood flow) at 1 µM in series [5] (pH 7.4, human liver microsomes, in vitro, reaction started with NADPH) came to 416 mL/min/kg. In addition, the “human CLhep” value in series [5] (predicted hepatic clearance from human liver microsomes) was 20 mL/min/kg.
Take `CCOC(=O)N[C@@H]1CC[C@@H]2[C@@H](C1)C[C@H]1C(=O)O[C@H](C)[C@H]1[C@H]2/C=C/c1ccc(-c2cccc(F)c2)cn1` [vorapaxar]: the primary efficacy outcome at PAR1 (added to standard care, acute coronary syndrome, phase 3) is given as “failed to meet its primary efficacy outcome”. The bleeding entry on PAR1 (phase 3, especially intracranial hemorrhage) is listed as “excess of major bleeding”.

Values taken from paper PMC11020070, “Discovery of Protease-Activated Receptor 4 (PAR4)-Tethered Ligand Antagonists Using Ultralarge Virtual Screening” (ACS Pharmacology & Translational Science, 2024).
